In patent US7335674B2, “Benzothiazole-4,7-diones and benzoxazole-4,7-diones with substituents in position 5 or 6 and method for production thereof” (Societe de Conseils de Recherches et d'Applications …, priority 2003, dated 2008):

What was measured:
[1] = system: Mia-Paca2 (human pancreas cancer cells); test: Antiproliferative activity, WST1 colorimetric test, Mia-PaCa2; type: cell-based; conditions: MIA PaCa-2, Mia-Paca2, treated 96 hours, up to 10 μM, read-out: IC50 on the cell proliferation of the Mia-Paca2 lines
Experimental: (§1) iii) Characterization of the Antiproliferative Activity:
(§2) By way of example, the effect of a treatment on two human cell lines Mia-Paca2 and DU145 by the compounds of the examples described previously will be studied. The cell lines DU145 (human prostate cancer cells) and Mia-PaCa2 (human pancreas cancer cells) were acquired from the American Tissue Culture Collection (Rockville, Md., USA). The cells placed in 80 μl of Dulbecco's Modified Eagle's medium (Gibco-Brl, Cergy-Pontoise, France) completed with 10% foetal calf serum inactivated by heating (Gibco-Brl, Cergy-Pontoise, France), 50,000 units/l of penicillin and 50 mg/l of streptomycin (Gibco-Brl, 10378-057, Cergy-Pontoise, France), and 2 mM of glutamine (Gibco-Brl, Cergy-Pontoise, France) were seeded on a 96-well plate on day 0. The cells were treated on day 1 for 96 hours with increasing concentrations of each of the compounds to be tested up to 10 μM. At the end of this period, quantification of cell proliferation is evaluated by a colorimetric test based on the cleavage of the tetrazolium salt WST1 by the mitochondrial dehydrogenases in viable cells leading to the formation of formazan (Boehringer Mannheim, Meylan, France). These tests are carried out in duplicate with 8 determinations per concentration tested. For each compound to be tested, the values included in the linear part of the sigmoid were retained for a linear regression analysis and used to estimate the inhibitory concentration IC50. The products are solubilized in dimethylsulphoxide (DMSO) at 10^−2 M and finally used in culture with 0.1% DMSO.

[2] = system: DU145 (human prostate cancer cells); test: Antiproliferative activity, WST1 colorimetric test, DU145; type: cell-based; conditions: DU-145, treated 96 hours, up to 10 μM, read-out: IC50 on the cell proliferation of the DU-145 lines
Experimental: as §1, §2

| SMILES | IC50 [1] | IC50 [2] | melting point |
| --- | --- | --- | --- |
| COc1ccc(-c2nc3c(o2)C(=O)C(NCCN2CCCC2)=CC3=O)cc1OC [Example 57, 2-(3,4-dimethoxyphenyl)-6-[(2-pyrrolidin-1-ylethyl)amino]-1,3-benzoxazole-4,7-dione] | ≤ 10 µM | ≤ 10 µM | 198.5 to 199.5 °C |
| CN(C)CCNC1=CC(=O)c2sc(-c3cc(Cl)sc3Cl)nc2C1=O [Example 2, 2-(2,5-dichlorothien-3-yl)-5-{1-[2-(dimethylamino)ethyl]amino}-1,3-benzothiazole-4,7-dione] | ≤ 10 µM | ≤ 10 µM |  |
| O=C1C=C(NCCN2CCCC2)C(=O)c2oc(Cc3c(F)cccc3Cl)nc21 [Example 58, 2-(2-chloro-6-fluorobenzyl)-6-[(2-pyrrolidin-1-ylethyl)amino]-1,3-benzoxazole-4,7-dione] | ≤ 10 µM | ≤ 10 µM | 173 to 174 °C |
| O=C1C=C(NCCN2CCCC2)C(=O)c2oc(-c3ccc4c(c3)OCO4)nc21 [Example 59, 2-(1,3-benzodioxol-5-yl)-6-[(2-pyrrolidin-1-ylethyl)amino]-1,3-benzoxazole4,7-dione] | ≤ 10 µM | ≤ 10 µM | 171 to 172 °C |
| O=C1C=C(NCCN2CCCC2)C(=O)c2oc(-c3ccc(Br)cc3)nc21 [Example 48, 2-(4-bromophenyl)-6-[(2-pyrrolidin-1-ylethyl)amino]-1,3-benzoxazole-4,7-dione] | ≤ 10 µM | ≤ 10 µM | 165 to 166 °C |
| CN(C)CCNC1=CC(=O)c2nc(-c3ccc(-c4ccccc4)cc3)sc2C1=O [Example 10, 2-(1,1′-biphenyl-4-yl)-6-{[2-(dimethylamino)ethyl]amino}-1,3-benzothiazole-4,7-dione] | ≤ 10 µM | ≤ 10 µM | 194 to 195 °C |
| O=C1C=C(NCCN2CCCC2)C(=O)c2oc(-c3cc(Br)cc(Br)c3)nc21 [Example 49, 2-(3,5-dibromophenyl)-6-[(2-pyrrolidin-1-ylethyl)amino]-1,3-benzoxazole-4,7-dione] | ≤ 10 µM | ≤ 10 µM | 202 to 203 °C |
| O=C1C(NCCN2CCCC2)=CC(=O)c2sc(-c3c(F)cccc3Cl)nc21 [Example 7, 2-(2-chloro-6-fluorophenyl)-5-[(2-pyrrolidin-1-ylethyl)amino]-1,3-benzothiazole-4,7-dione] | ≤ 10 µM | ≤ 10 µM |  |
| CCc1ccc(-c2nc3c(o2)C(=O)C(NCCN2CCCC2)=CC3=O)cc1 [Example 54, 2-(4-ethylphenyl)-6-[(2-pyrrolidin-1-ylethyl)amino]-1,3-benzoxazole-4,7-dione] | ≤ 10 µM | ≤ 10 µM |  |
| COc1cc(-c2nc3c(o2)C(=O)C(NCCN2CCCC2)=CC3=O)cc(OC)c1OC [Example 56, 6-[(2-pyrrolidin-1-ylethyl)amino]-2-(3,4,5-trimethoxyphenyl)-1,3-benzoxazole-4,7-dione] | ≤ 10 µM | ≤ 10 µM |  |
| CCCCCCc1nc2c(s1)C(=O)C(NCCN(C)C)=CC2=O [Example 60, 6-{[2-(dimethylamino)ethyl]amino}-2-hexyl-1,3-benzothiazole-4,7-dione] | ≤ 10 µM | ≤ 10 µM |  |
| O=C1C(NCCN2CCCC2)=CC(=O)c2sc(-c3ccc(F)cc3)nc21 [Example 5, 2-(4-fluorophenyl)-5-[(2-pyrrolidin-1-ylethyl)amino]-1,3-benzothiazole-4,7-dione] | ≤ 10 µM | ≤ 10 µM |  |
| O=C1C(NCCN2CCCC2)=CC(=O)c2sc(-c3cc(Cl)sc3Cl)nc21 [Example 3, 2-(2,5-dichlorothien-3-yl)-5-[(2-pyrrolidin-1-ylethyl)amino]-1,3-benzothiazole-4,7-dione] | ≤ 10 µM | ≤ 10 µM |  |

Continued, values first:

| IC50 [1] | IC50 [2] | melting point | SMILES |
| --- | --- | --- | --- |
| ≤ 10 µM | ≤ 10 µM | 147 to 148 °C | CN(C)CCNC1=CC(=O)c2nc(-c3ccccc3Br)oc2C1=O [Example 28, 2-(2-bromophenyl)-6-{[2-(dimethylamino)ethyl]amino}-1,3-benzoxazole4,7-dione] |
| ≤ 10 µM | ≤ 10 µM | 174 to 175 °C | CN(C)CCNC1=CC(=O)c2nc(-c3cccc(Cl)c3)oc2C1=O [Example 30, 2-(3-chlorophenyl)-6-{[2-(dimethylamino)ethyl]amino}-1,3-benzoxazole4,7-dione] |
| ≤ 10 µM | ≤ 10 µM | 161 to 162 °C | O=C1C=C(NCCN2CCCC2)C(=O)c2oc(-c3cccc(Cl)c3)nc21 [Example 47, 2-(3-chlorophenyl)-6-[(2-pyrrolidin-1-ylethyl)amino]-1,3-benzoxazole4,7-dione] |
| ≤ 10 µM | ≤ 10 µM |  | CN(C)CCNC1=CC(=O)c2nc(-c3cc(F)ccc3F)oc2C1=O [Example 27, 2-(2,5-difluorophenyl)-6-{[2-(dimethylamino)ethyl]amino}-1,3-benzoxazole-4,7-dione] |
| ≤ 10 µM | ≤ 10 µM |  | CN(C)CCNC1=CC(=O)c2sc(-c3c(F)cccc3Cl)nc2C1=O [Example 6, 2-(2-chloro-6-fluorophenyl)-5-{[2-(dimethylamino)ethyl]amino}-1,3-benzothiazole4,7-dione] |
| ≤ 10 µM | ≤ 10 µM | 165 to 166 °C | Cc1cc(-c2nc3c(o2)C(=O)C(NCCN(C)C)=CC3=O)ccc1Br [Example 37, 2-(4-bromo-3-methylphenyl)-6-{[2-(dimethylamino)ethyl]amino}-1,3-benzoxazole-4,7-dione] |
| ≤ 10 µM | ≤ 10 µM | 151 to 152 °C | CCc1ccc(-c2nc3c(o2)C(=O)C(NCCN(C)C)=CC3=O)cc1 [Example 38, 6-{[2-(dimethylamino)ethyl]amino}-2-(4-ethylphenyl)-1,3-benzoxazole-4,7-dione] |
| ≤ 10 µM | ≤ 10 µM | 176 to 177 °C | CN(C)CCNC1=CC(=O)c2nc(-c3cc(F)cc(F)c3)oc2C1=O [Example 34, 2-(3,5-difluorophenyl)-6-{[2-(dimethylamino)ethyl]amino}-1,3-benzoxazole-4,7-dione] |
| ≤ 10 µM | ≤ 10 µM | 169 to 170 °C | CCc1ccc(-c2nc3c(o2)C(=O)C=C(NCCN(C)C)C3=O)cc1 [Example 22, 5-{[2-(dimethylamino)ethyl]amino}-2-(4-ethylphenyl)-1,3-benzoxazole4,7-dione] |
| ≤ 10 µM | ≤ 10 µM | 171 to 172 °C | Cc1cc(-c2nc3c(o2)C(=O)C(NCCN2CCCC2)=CC3=O)ccc1Br [Example 53, 2-(4-bromo-3-methylphenyl)-6-[(2-pyrrolidin-1-ylethyl)amino]-1,3-benzoxazole-4,7-dione] |
| ≤ 10 µM | ≤ 10 µM | 163 to 164 °C | CN(C)CCNC1=CC(=O)c2nc(-c3ccc(Br)cc3Cl)oc2C1=O [Example 39, 2-(4-bromo-2-chlorophenyl)-6-{[2-(dimethylamino)ethyl]amino}-1,3-benzoxazole4,7-dione] |
| ≤ 10 µM | ≤ 10 µM | 206 to 207 °C | CN(C)CCNC1=CC(=O)c2nc(-c3cc(Br)cc(Br)c3)oc2C1=O [Example 32, 2-(3,5-dibromophenyl)-6-{[2-(dimethylamino)ethyl]amino}-1,3-benzoxazole-4,7-dione] |
| ≤ 10 µM | ≤ 10 µM |  | COc1cc(-c2nc3c(o2)C(=O)C(NCCN(C)C)=CC3=O)cc(OC)c1OC [Example 40, 6-{[2-(dimethylamino)ethyl]amino}-2-(3,4,5-trimethoxyphenyl)-1,3-benzoxazole-4,7-dione] |
| ≤ 10 µM | ≤ 10 µM |  | CN(C)CCNC1=CC(=O)c2sc(-c3ccc(F)cc3)nc2C1=O [Example 4, 5-{[2-(dimethylamino)ethyl]amino}-2-(4-fluorophenyl)-1,3-benzothiazole4,7-dione] |
| ≤ 10 µM | ≤ 10 µM |  | CN(C)CCNC1=CC(=O)c2nc(-c3cc(F)ccc3F)sc2C1=O [Example 14, 2-(2,5-difluorophenyl)-6-{[2-(dimethylamino)ethyl]amino}-1,3-benzothiazole-4,7-dione] |
| ≤ 10 µM | ≤ 10 µM |  | CN(C)CCNC1=CC(=O)c2nc(-c3c(F)cccc3Cl)sc2C1=O [Example 12, 2-(2-chloro-6fluorophenyl)-6-{[2-(dimethylamino)ethyl]amino}-1,3-benzothiazole-4,7-dione] |
| ≤ 10 µM | ≤ 10 µM |  | CN(C)CCNC1=CC(=O)c2oc(-c3cc(F)c(F)c(F)c3)nc2C1=O [Example 21, 5-{[2-(dimethylamino)ethyl]amino}-2-(3,4,5-trifluorophenyl)-1,3-benzoxazole4,7-dione] |
| ≤ 10 µM | ≤ 10 µM |  | CN(C)CCNC1=CC(=O)c2sc(-c3c(F)cccc3F)nc2C1=O [Example 1, 2-(2,6-difluorophenyl)-5-{[2-(dimethylamino)ethyl]amino}-1,3-benzothiazole-4,7-dione] |
